pIC50: −log10 of the molar value.
Tests used:
CDK2 = target: T1, CDK2 (Homo sapiens, UniProt P24941); assay: CDK2 substrate phosphorylation assay (biotinylated peptide); format: biochemical; settings: read-out: CDK2 inhibition
T1 construct: made in house
Protocol: (§1) The compounds of the present invention have valuable pharmacologic properties. Different compounds from this class are particularly effective at inhibiting CDK2 and/or CDK4 enzymes at concentrations, which range from 0.0001 to 1 μM and additionally show specificity relative to other kinases. Substrate phosphorylation assays were carried out as follows:
Cyclin dependent protein kinase 2 assays utilized the peptide Biotin-aminohexyl-ARRPMSPKKKA-NH2 as phosphoryl group acceptor. CDK2 was expressed utilizing a baculovirus expression system and was partially purified to comprise 20-80% of total protein, with no detectable competing reactions present. Typically, assays were performed by incubating enzyme (0.2-10 nM), with and without inhibitor, peptide substrate (1-10 nM), [g-^32P]ATP (1-20 nM), and 10-20 mM Mg^2+ for periods of time generally within the range 10-120 minutes. Reactions were terminated with 0.2-2 volumes of either 20% acetic acid or 50-100 mM EDTA buffered to pH 7 (substrate consumption <20%). The buffer employed in enzyme assay was 100 mM HEPES pH 7.5 containing 0.1 mg/mL BSA and 5% DMSO. Inhibitors were diluted in 100% DMSO prior to addition into the assay. Detection of peptide phosphorylation was accomplished by scintillation counting following either collection of peptide onto phosphocellulose filters (for reactions stopped with acetic acid), collection of peptide in wells of 96 well plates coated with Streptavidin (Pierce) (reactions were stopped with EDTA), or addition of Avidin coated Scintillant impregnated beads (Scintillation Proximity Assays from Amersham, reactions were stopped with EDTA). […] Radioactivity was determined by liquid scintillation counting.

[1] = target: T2, CDK4 (Cyclin D1 and cyclin-dependent kinase 4) (Homo sapiens, UniProt P11802); assay: CDK4 substrate phosphorylation assay (Rb protein); format: biochemical; settings: read-out: CDK4 inhibition
T2 construct: made in house
T2 sequence (P11802 whole entry): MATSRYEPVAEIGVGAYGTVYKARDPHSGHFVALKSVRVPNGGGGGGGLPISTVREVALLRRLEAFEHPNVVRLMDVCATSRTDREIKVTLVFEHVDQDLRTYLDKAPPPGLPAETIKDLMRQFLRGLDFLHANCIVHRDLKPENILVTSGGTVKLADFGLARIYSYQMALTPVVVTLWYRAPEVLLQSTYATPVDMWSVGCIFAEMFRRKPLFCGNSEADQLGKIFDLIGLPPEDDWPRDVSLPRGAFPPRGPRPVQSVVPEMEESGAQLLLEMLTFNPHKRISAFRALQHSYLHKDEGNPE
T2 sequence (P24385 whole entry partner): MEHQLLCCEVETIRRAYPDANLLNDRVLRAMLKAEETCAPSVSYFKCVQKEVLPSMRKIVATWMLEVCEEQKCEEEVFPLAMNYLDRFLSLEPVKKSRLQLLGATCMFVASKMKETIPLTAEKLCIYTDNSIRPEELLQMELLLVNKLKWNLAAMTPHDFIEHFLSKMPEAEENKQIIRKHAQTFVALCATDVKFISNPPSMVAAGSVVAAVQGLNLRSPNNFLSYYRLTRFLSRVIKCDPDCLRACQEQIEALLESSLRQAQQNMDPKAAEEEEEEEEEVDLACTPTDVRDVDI
Protocol: as §1
Cyclin D1 and cyclin-dependent kinase 4 were expressed utilizing a baculovirus expression system. The catalytic activity of CDK4 protein was assayed by measuring the phosphorylation of Rb protein. A truncated Rb protein (residues 773-928 of the native retinoblastoma protein, fused to glutathione S-transferase to facilitate purification) was used as the phosphoryl acceptor. The assay conditions were 100 mM HEPES (N-[2-hydroxyethyl]piperzine-N′-[2-ethanesulfonic acid]), pH 7.5, 0.5 μM GST-Rb protein, 1 μCi/mL [^33P]-ATP (1 nM-20 μM), 5-20 mM MgCl2, 2.5 mM EDTA, 1 mM dithiothieitol, 0.2 mg/mL bovine serum albumin, 2% (v/v) dimethyl sulfoxide (DMSO), CDK4 enzyme (5-50 nM) in a final volume of 50 μL. Reactions were incubated for time periods of 10-60 min at 30° C. and terminated by the addition of 50 μL quench (1 mM ATP/100 mM EDTA, pH 7.0). Detection of protein phosphorylation was accomplished by scintillation counting following collection of protein in 96 well plates coated with Glitathione or trapping of protein onto phosphocellulose filters. Counts detected by these methodologies minus the appropriate background were assumed to be proportional to the reaction initial rates. IC50 values were determined by measuring enzyme activity in the presence of different inhibitor concentrations (0.1 nM to 50 μM). IC50s were determined by a least squares fit to the equation CPM=Vmax*(1−([I]/(K+[I])))+nsb, or pIC50s were determined by a fit to the equation CPM=nsb+(Vmax−nsb)/(1+(x/10^x−pIC50)), where nsb are the background counts.

[2] = tested on: human tumor cells (U2OS, MDA-MB-231, SaOs-2, MDA-MB-468); assay: Anti-proliferation cell-based assay (BrdU incorporation); settings: 18 hr compound incubation, cell line not given, read-out: Anti-proliferative activity
Protocol: Anti-Proliferation Cell-Based Assay
The anti-proliferative activity of compounds was determined measuring the rate of DNA synthesis by bromodeoxyuridine (BrdU) incorporation into cellular DNA. The amount of BrdU in cellular DNA was detected using an anti-BrdU antibody in an ELISA format to allow for rapid throughput. Log-phase growing human tumor cells either containing functional Rb (U2OS, MDA-MB-231) or lacking functional Rb protein (SaOs-2, MDA-MB-468) were plated in medium into 96-well plates (1−6×10^3 cells/100 μL medium/well) and allowed to incubate overnight […]. Compounds (concentration range of 0.046-100 μM) were diluted in medium (final DMSO (v/v) 0.8%), added to wells containing cells, and incubated for 18 hr at 37° C. BrdU (100 μM) was added and incubated for 4 hr. Cells were rinsed with PBS and DNA was denatured by addition of fixation/denaturation solution. Anti-BrdU antibody conjugated to horseradish peroxidase in 1% BSA was added for 2 hr at room temperature. Cells were washed, the chemiluminescence reagent was added, and plates were read in luminometer.

Row | pIC50 (CDK2) | pIC50 [1] | pIC50 [2] | Structure (SMILES)
1 | > 6.00 | > 7.00 | > 6.00 | CN(C)Cc1ccc(N/C=C2\C(=O)Nc3ccc4ncccc4c32)cc1 [Example 1, 1-[(Z)-(4-Dimethylaminomethylanilino)methylidene]-1,3-dihydro-2H-pyrrolo[3,2-f]quinoline-2-one]
2 | > 6.00 | > 7.00 | > 7.00 | CC(C)CN(C)Cc1ccc(N/C=C2\C(=O)Nc3ccc4ncccc4c32)cc1 [Example 6, 1-[(Z)-(4-(N-Methyl)-2-methylpropylaminomethylanilino)methylidene]-1,3-dihydro-2H-pyrrolo[3,2-f]quinoline-2-one]
3 | > 7.00 | > 7.00 | > 6.00 | O=C1Nc2ccc3ncccc3c2/C1=C/Nc1ccc(CN2CCOCC2)cc1 [Example 10, 1-[(Z)-(4-(4-morpholinyl)methylanilino)methylidene]-1,3-dihydro-2H-pyrrolo[3,2-f]quinoline-2-one]
